# Reference: the NIST ThermoML archive (doi:10.1016/j.tca.2006.06.022)
# ± gives the expanded uncertainty stated by the source.
# Columns and labels:
# [1] = DTA
# [2] = Molar enthalpy of transition or fusion; conditions: DSC
SMILES,Triple point temperature ([1]; Crystal 1) [K],Triple point temperature ([1]; Crystal 2) [K],Triple point temperature ([1]; Crystal 3) [K],Molar enthalpy of transition or fusion ([2]; Crystal 1) [kcal/mol],Molar enthalpy of transition or fusion ([2]; Crystal 2) [kcal/mol],Molar enthalpy of transition or fusion ([2]; Crystal 3) [kcal/mol],Triple point temperature ([1]; Crystal 4) [K],Molar enthalpy of transition or fusion ([2]; Crystal 4) [kcal/mol]
CCCCCCCCCCCCCCCCCCCCCCCCCCCCCCCCCCCCCCCCCC [dotetracontane],357.3 ± 0.1,348.6 ± 0.1,344.6 ± 0.1,39.7 ± 0.813,2.02 ± 0.0574,0.504 ± 0.0287,–,–
CCCCCCCCCCCCCCCCCCCCCCCCCCCCCCCCCCCC [hexatriacontane],349.2 ± 0.1,347.1 ± 0.1,346.8 ± 0.1,24.5 ± 0.502,6.82 ± 0.153,3.59 ± 0.0884,343.6 ± 0.1,0.112 ± 0.0208
CCCCCCCCCCCCCCCCCCCCCCCCCCCCCCCCCCCCCCCC [tetracontane],354.6 ± 0.1,347.7 ± 0.1,345 ± 0.1,34.4 ± 0.717,2.05 ± 0.0574,0.601 ± 0.0311,–,–
CCCCCCCCCCCCCCCCCCCCCCCCCCCCCCCCCC [tetratriacontane],346.1 ± 0.1,343.5 ± 0.1,342.8 ± 0.1,22.9 ± 0.478,11.2 ± 0.239,0.0968 ± 0.0203,–,–
